Experimental data taken from publication PMC8010461, “The acyltransferase PMAT1 malonylates brassinolide glucoside” (The Journal of Biological Chemistry, 2021).

How the values were obtained:
UGT73C5 [1] = target: T1, UGT73C5 (Arabidopsis thaliana, UniProt Q9ZQ94); experiment: preparative in vitro glucosylation, product purified by HPLC; assay type: biochemical; settings: co-substrate UDP-glucose; glucosylation at C-23
T1 construct: recombinant GST-tagged UGT73C5
T1 sequence (Q9ZQ94 1-495): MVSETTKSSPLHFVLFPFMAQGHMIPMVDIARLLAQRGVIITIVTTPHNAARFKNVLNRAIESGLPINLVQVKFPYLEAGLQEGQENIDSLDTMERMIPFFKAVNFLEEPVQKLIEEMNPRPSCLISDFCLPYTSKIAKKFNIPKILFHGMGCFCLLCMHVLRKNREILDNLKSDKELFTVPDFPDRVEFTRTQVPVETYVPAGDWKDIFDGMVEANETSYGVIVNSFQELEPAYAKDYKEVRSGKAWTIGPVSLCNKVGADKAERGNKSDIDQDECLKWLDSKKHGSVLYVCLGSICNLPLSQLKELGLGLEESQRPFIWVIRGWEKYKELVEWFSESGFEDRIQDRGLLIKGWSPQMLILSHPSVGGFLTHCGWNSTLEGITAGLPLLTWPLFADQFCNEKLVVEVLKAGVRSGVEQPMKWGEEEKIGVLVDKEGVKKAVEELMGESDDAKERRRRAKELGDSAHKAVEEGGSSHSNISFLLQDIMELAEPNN

UGT73C5 [2] = target: T1, UGT73C5; experiment: in vitro glucosylation, product confirmed by HR-MS and HR-MS/MS; assay type: biochemical; settings: reference compound synthesis; glucosylation at C-23
purified protein = substrate: CC(C)[C@@H](C)[C@@H](O[C@@H]1O[C@H](CO)[C@@H](O)[C@H](O)[C@H]1O)[C@H](O)[C@@H](C)[C@H]1CC[C@H]2[C@@H]3COC(=O)[C@H]4C[C@H](O)[C@H](O)C[C@]4(C)[C@H]3CC[C@]12C; experiment: purified protein; assay type: biochemical, Arabidopsis thaliana; settings: co-substrate malonyl-CoA 2.5 mM, 50 mM sodium phosphate pH 8.0, 30 °C

Molecule: CC(C)[C@@H](C)[C@@H](O)[C@H](O)[C@@H](C)[C@H]1CC[C@H]2[C@@H]3COC(=O)[C@H]4C[C@H](O)[C@H](O)C[C@]4(C)[C@H]3CC[C@]12C [24-epiBL]
- preparative in vitro glucosylation, product purified by HPLC (UGT73C5 [1]): 24-epiBL (epiBL) as an acceptor were carried out, and the resulting epiBL-23-O-Glc was purified

Molecule: CC(C)[C@H](C)[C@@H](O)[C@H](O)[C@@H](C)[C@H]1CC[C@H]2[C@@H]3COC(=O)[C@H]4C[C@H](O)[C@H](O)C[C@]4(C)[C@H]3CC[C@]12C [brassinolide]
- in vitro glucosylation, product confirmed by HR-MS and HR-MS/MS (UGT73C5 [2]): BL-23-O-MalGlc as analytical reference, which were generated in vitro with recombinant UGT73C5 and PMAT1

B1: PMAT1 (Arabidopsis thaliana) (protein)
chain: MVNEEMESSLKVIDVARVTPSNSDSSESLTLPLTFFDLLWYKLHAVERVIFYKLTDASRPFFDSVIVPNLKTSLSSSLSHYLPLAGKLVWEPLDPKPKIVYTPNDAVSFTVAESNADFSRLTGKEPFPTTELYPLVPELHVSDDSASAVSFQVTLFPNQGFCISVNAHHAVLDGKTTTNFLKSWARTCKNQDSFLPQDLIPVYDRTVIKDPMDLDTKILNAWHRVAKVFTGGKEPENPKSLKLLWSPEIGPDVFRYTLNLTREDIQKLRERLKKESSSSSVSSSPKELRLSTFVIVYSYALTCLIKARGGDPSRPVGYGFAVDCRSLMVPPVPSSYFGNCVSACFKMSLTAETFMSEEGFLAAARMVSDSVEALDENVALKIPEILEGFTTLSPGTQVLSVAGSTRFGVYGLDFGWGRPEKVVVVSIDQGEAISFAESRDGSGGVELGFSLKKHEMDVLVDLLHKGLEN
notes: full ORF, GST fusion (pGEX-4T-2-PMAT1), E. coli BL21, glutathione Sepharose purified; GST tag kept
- Km (purified protein; 20 min): 235 µmol/L

B2: At5MAT (Arabidopsis thaliana) (protein)
chain: MVNFNSAVNILEVVQVSPPSSNSLTLPLTYFDLGWLKLHPVDRVLFYHVPELTRSSLISKLKSSLSATLLHYLPLAGRLVWDSIKTKPSIVYSPDDKDAVYLTVAESNGDLSHLSGDEPRPATEFHSLVPELPVSDESARVLAVQVTFFPNQGFSLGVTAHHAVLDGKTTAMFLKAWAHNCKQEQEALPHDLVPSLDRIIVQDPTGLETKLLNRWISASNNKPSLKLFPSKIIGSDILRVTYRLTREDIKKLRERVETESHAKQLRLSTFVITYAYVITCMVKMRGGDPTRFVCVGFASDFRSRLNPPLPPTFFGNCIVGSGDFDVKAEPILEEGEGKGFITAVETLTGWVNGLCPENIEKNMLLPFEAFKRMEPGRQMISVAGSTRLGIYGSDFGWGKPVKVEIVTIDKDASVSLSESGDGSGGVEVGVCLKKDDVERFGSLFSIGLE
notes: full ORF, GST fusion (pGEX-4T-2-At5MAT), E. coli BL21, glutathione Sepharose purified; GST tag kept
- Km (purified protein; 240 min): 71 µmol/L
